Measured values: patent publication EP0085842A1, “Antimycosic agents” (BAYER AG, priority 1982, dated 1983)
In brackets after ≈: the same amount, converted by molar mass.

Key:
Trichophyton mentagr. = assay: Antimycotic in-vitro activity, serial dilution test (MIC); format: cell-based, Trichophyton mentagrophytes; details: Sabouraud's milieu d'epreuve, 20°C, 96 h, inoculum 5 x 10^4 Keime/ml, read-out: MHK-Werte in γ/ml Nährmedium Trichophyton mentagr.
Experimental: (§1) Versuchsbeschreibung: • Die in-vitro-Prüfungen wurden im Reihenverdünnungstest mit Keiminokula von durchschnittlich 5 x 10^4 Keimen/ml Substrat durchgeführt. Als Nährmedium dienten • a) für Dermatophyten und Schimmelpilze: Sabouraud's milieu d'epreuve • b) für Hefen: • Fleischextrakt-Traubenzucker-Bouillon.
(§2) Die Bebrütungstemperatur betrug 20°C, die Bebrütungsdauer lag bei 24 bis 96 Stunden bei Hefen und 96 Stunden bei Dermatophyten und Schimmelpilzen.

Aspergillus fumigatus = assay: as above; format: cell-based; details: Sabouraud's milieu d'epreuve, 20°C, 96 h, inoculum 5 x 10^4 Keime/ml, read-out: MHK-Werte in γ/ml Nährmedium Aspergillus fumigatus
Experimental: as §1, §2

Candida albicans = assay: as above; format: cell-based; details: Fleischextrakt-Traubenzucker-Bouillon, 20°C, 24 to 96 h, inoculum 5 x 10^4 Keime/ml, read-out: MHK-Werte in γ/ml Nährmedium Candida albicans
Experimental: as §1, §2

Microsporum canis = assay: as above; format: cell-based; details: Sabouraud's milieu d'epreuve, 20°C, 96 h, inoculum 5 x 10^4 Keime/ml, read-out: MHK-Werte in γ/ml Nährmedium Microsporum canis
Experimental: as §1, §2

Torulopsis glabrata = assay: as above; format: cell-based; details: Nakaseomyces glabratus; Fleischextrakt-Traubenzucker-Bouillon, 20°C, 24 to 96 h, inoculum 5 x 10^4 Keime/ml; read-out: MHK-Werte in γ/ml Nährmedium Torulopsis glabrata
Experimental: as §1, §2

Candida-Zellen = assay: Antimycotic in-vivo activity (oral) in mouse candidosis; set-up: species or system Mäuse vom Typ SPF-CF1; key to Wirkung: +++++: sehr gute Wirkung = 90 % Überlebende am 6.Tag p.i.; ++++: gute Wirkung = 80 % Überlebende am 6.Tag p.i.; +++: Wirkung = 60 % Überlebende am 6.Tag p.i.; ++: schwache Wirkung = 40 % Überlebende am 6.Tag p.i.; +: Spur Wirkung = unter 40 % Überlebende am 6.Tag p.i.; k.W.: keine Wirkung; details: for Wirkung: mice infected i.v. with Candida, oral 50 - 100 mg/kg one hour before and seven hours after infection, survivors on day 6 p.i.; for Wirkung compared with known compounds (A), (B), (C) and (D): mouse candidosis, oral 50 - 100 mg/kg
Experimental: Mäuse vom Typ SPF-CF1 wurden intravenös mit 1 - 2 x 10^6 logarithmisch wachsenden Candida-Zellen, die in physiologischer Kochsalzlösung suspendiert werden, infiziert. Eine Stunde vor und sieben Sunden nach der Infektion werden die Tiere mit jeweils 50 - 100 mg/kg Körpergewicht der Präparate oral behandelt.
Unbehandelte Tiere starben 3 bis 6 Tage post infektionem. Die Überlebensrate am 6. Tag post infektionem betrug bei unbehandelten Kontrolltieren etwa 5 %.
+++++ = sehr gute Wirkung = 90 % Überlebende am 6.Tag p.i. ++++ = gute Wirkung = 80 % Überlebende am 6.Tag p.i. +++ = Wirkung = 60 % Überlebende am 6.Tag p.i. ++ = schwache Wirkung = 40 % Überlebende am 6.Tag p.i. + = Spur Wirkung = unter 40 % Überlebende am 6.Tag p.i. k.W. = keine Wirkung

[1] = test system: Trichophyton mentagrophytes; assay: Antimycotic in-vivo activity (local) in experimental guinea pig trichophytosis; set-up: species or system Meerschweinchen; key: +++++: sehr gute Wirkung = keine Infektionszeichen am 12.-15.Tag p.i.; ++++: gute Wirkung = geringe Rötung, vereinzelt Schuppen; +++: Wirkung = Rötung, Schuppung, ohne Haarausfall; ++: schwache Wirkung = Rötung, Schuppung, Haarausfall; +: Spur Wirkung = flächiger Haarausfall, entzündliche Hautreaktion
[2] = local treatment, trichophytosis model
[3] = local, 1 x daily from day 3 p.i., 15 %ige Lösung in Dimethylsulfoxid:Glycerin = 1:4, infection signs day 12-15 p.i.

Structure (SMILES): Cc1ccc(OCC(O)(Cn2cncn2)C(C)(C)CF)cc1 (centres unmarked) [Beispiel 6]
- MIC (Trichophyton mentagr.): 2 µg/mL (≈ 6.51 µM)
- MIC (Aspergillus fumigatus): 2 µg/mL (≈ 6.51 µM)
- MIC (Candida albicans): < 1 µg/mL
- MIC (Microsporum canis): 4 µg/mL (≈ 13 µM)
- MIC (Torulopsis glabrata): 4 µg/mL (≈ 13 µM)

Structure (SMILES): CC(CF)(CF)C(O)(CCc1ccc(Cl)cc1)Cn1ccnc1 (centres unmarked) [Beispiel 37]
- MIC (Trichophyton mentagr.): 4 µg/mL (≈ 11.7 µM)
- MIC (Aspergillus fumigatus): 2 µg/mL (≈ 5.83 µM)
- MIC (Candida albicans): 4 µg/mL (≈ 11.7 µM)
- MIC (Microsporum canis): 16 µg/mL (≈ 46.7 µM)
- MIC (Torulopsis glabrata): 2 µg/mL (≈ 5.83 µM)
- Wirkung (Candida-Zellen): ++++ (gute Wirkung = 80 % Überlebende am 6.Tag p.i.)
- Wirkung compared with known compounds (A), (B), (C) and (D) (Candida-Zellen): bessere Wirkung

Structure (SMILES): COCC(C)(C)C(O)(COc1ccc(Cl)cc1C)Cn1cncn1 (centres unmarked) [Beispiel 17]
- MIC (Trichophyton mentagr.): < 1 µg/mL
- MIC (Aspergillus fumigatus): 4 µg/mL (≈ 11.3 µM)
- MIC (Candida albicans): < 1 µg/mL
- MIC (Microsporum canis): < 1 µg/mL
- MIC (Torulopsis glabrata): 4 µg/mL (≈ 11.3 µM)

Structure (SMILES): CC(CF)(CF)C(O)(COc1ccc(Cl)cc1Cl)Cn1cncn1 (centres unmarked) [Beispiel 14]
- MIC (Trichophyton mentagr.): < 1 µg/mL
- MIC (Aspergillus fumigatus): 4 µg/mL (≈ 10.5 µM)
- MIC (Candida albicans): < 1 µg/mL
- MIC (Microsporum canis): < 1 µg/mL
- MIC (Torulopsis glabrata): 4 µg/mL (≈ 10.5 µM)
- Wirkung (Candida-Zellen): +++++ (sehr gute Wirkung = 90 % Überlebende am 6.Tag p.i.)
- Wirkung compared with known compounds (A), (B), (C) and (D) (Candida-Zellen): bessere Wirkung
- Wirkung [1, 2]: Wirkung bis gute Wirkung
- Wirkung [1, 3]: ++++

Structure (SMILES): CC(CF)(CF)C(O)(COc1ccc(Cl)cc1)Cn1ccnc1 (centres unmarked) [Beispiel 31]
- Wirkung (Candida-Zellen): ++++ (gute Wirkung = 80 % Überlebende am 6.Tag p.i.)
- Wirkung compared with known compounds (A), (B), (C) and (D) (Candida-Zellen): bessere Wirkung
- Wirkung [1, 2]: Wirkung bis gute Wirkung
- Wirkung [1, 3]: +++

Structure (SMILES): COCC(C)(C)C(O)(COc1ccc(F)cc1)Cn1cncn1 (centres unmarked) [Beispiel 20]
- MIC (Trichophyton mentagr.): 2 µg/mL (≈ 6.18 µM)
- MIC (Aspergillus fumigatus): 32 µg/mL (≈ 99 µM)
- MIC (Candida albicans): < 1 µg/mL
- MIC (Microsporum canis): 8 µg/mL (≈ 24.7 µM)
- MIC (Torulopsis glabrata): 2 µg/mL (≈ 6.18 µM)

Structure (SMILES): CC(C)(CF)C(O)(CSc1ccccc1Cl)Cn1cncn1 (centres unmarked) [Beispiel 11]
- MIC (Trichophyton mentagr.): 2 µg/mL (≈ 5.82 µM)
- MIC (Aspergillus fumigatus): 8 µg/mL (≈ 23.3 µM)
- MIC (Candida albicans): < 1 µg/mL
- MIC (Microsporum canis): 4 µg/mL (≈ 11.6 µM)
- MIC (Torulopsis glabrata): 16 µg/mL (≈ 46.5 µM)

Structure (SMILES): CC(C)(COc1ccc(Cl)cc1Cl)C(O)(CCc1ccc(Cl)cc1)Cn1ccnc1 (centres unmarked) [Beispiel 35]
- MIC (Trichophyton mentagr.): < 1 µg/mL
- MIC (Aspergillus fumigatus): < 1 µg/mL
- MIC (Candida albicans): 4 µg/mL (≈ 8.55 µM)
- MIC (Microsporum canis): < 1 µg/mL
- MIC (Torulopsis glabrata): < 1 µg/mL

Structure (SMILES): Cc1ccccc1CCC(O)(Cn1ccnc1)C(C)(C)C (centres unmarked) [(D), reference compound]
- MIC (Trichophyton mentagr.): 8 µg/mL (≈ 27.9 µM)
- MIC (Aspergillus fumigatus): 64 µg/mL (≈ 223 µM)
- MIC (Candida albicans): 2 µg/mL (≈ 6.98 µM)
- MIC (Microsporum canis): 16 µg/mL (≈ 55.9 µM)
- MIC (Torulopsis glabrata): 16 µg/mL (≈ 55.9 µM)
- Wirkung (Candida-Zellen): k.W.

Structure (SMILES): CC(C)(CF)C(O)(CCc1ccc(Cl)cc1Cl)Cn1ccnc1 (centres unmarked) [Beispiel 38]
- MIC (Trichophyton mentagr.): 4 µg/mL (≈ 11.1 µM)
- MIC (Aspergillus fumigatus): 16 µg/mL (≈ 44.5 µM)
- MIC (Candida albicans): < 1 µg/mL
- MIC (Microsporum canis): 8 µg/mL (≈ 22.3 µM)
- MIC (Torulopsis glabrata): 2 µg/mL (≈ 5.57 µM)
- Wirkung (Candida-Zellen): +++ (Wirkung = 60 % Überlebende am 6.Tag p.i.)
- Wirkung compared with known compounds (A), (B), (C) and (D) (Candida-Zellen): bessere Wirkung

Structure (SMILES): CC(CF)(CF)C(O)(CCc1ccc(Cl)cc1Cl)Cn1ccnc1 (centres unmarked) [Beispiel 36]
- MIC (Trichophyton mentagr.): 2 µg/mL (≈ 5.3 µM)
- MIC (Aspergillus fumigatus): 8 µg/mL (≈ 21.2 µM)
- MIC (Candida albicans): < 1 µg/mL
- MIC (Microsporum canis): 4 µg/mL (≈ 10.6 µM)
- MIC (Torulopsis glabrata): 4 µg/mL (≈ 10.6 µM)
- Wirkung (Candida-Zellen): ++++ (gute Wirkung = 80 % Überlebende am 6.Tag p.i.)
- Wirkung compared with known compounds (A), (B), (C) and (D) (Candida-Zellen): bessere Wirkung

Structure (SMILES): CC(C)(CF)C(O)(CSc1ccc(Cl)c(Cl)c1)Cn1cncn1 (centres unmarked) [Beispiel 12]
- MIC (Trichophyton mentagr.): < 1 µg/mL
- MIC (Aspergillus fumigatus): < 1 µg/mL
- MIC (Candida albicans): < 1 µg/mL
- MIC (Microsporum canis): 2 µg/mL (≈ 5.29 µM)
- MIC (Torulopsis glabrata): < 1 µg/mL
- Wirkung (Candida-Zellen): ++++ (gute Wirkung = 80 % Überlebende am 6.Tag p.i.)
- Wirkung compared with known compounds (A), (B), (C) and (D) (Candida-Zellen): bessere Wirkung

Structure (SMILES): C=CC(C)(C)C(O)(COc1ccc(F)cc1)Cn1cncn1 (centres unmarked) [Beispiel 24]
- MIC (Trichophyton mentagr.): < 1 µg/mL
- MIC (Aspergillus fumigatus): 4 µg/mL (≈ 13.1 µM)
- MIC (Candida albicans): 4 µg/mL (≈ 13.1 µM)
- MIC (Microsporum canis): 8 µg/mL (≈ 26.2 µM)
- MIC (Torulopsis glabrata): 8 µg/mL (≈ 26.2 µM)
- Wirkung (Candida-Zellen): ++ (schwache Wirkung = 40 % Überlebende am 6.Tag p.i.)
- Wirkung compared with known compounds (A), (B), (C) and (D) (Candida-Zellen): bessere Wirkung

Structure (SMILES): C=CC(C)(C)C(O)(COc1ccc(Cl)cc1Cl)Cn1cncn1 (centres unmarked) [Beispiel 23]
- MIC (Trichophyton mentagr.): < 1 µg/mL
- MIC (Aspergillus fumigatus): 4 µg/mL (≈ 11.2 µM)
- MIC (Candida albicans): < 1 µg/mL
- MIC (Microsporum canis): 8 µg/mL (≈ 22.5 µM)
- MIC (Torulopsis glabrata): 4 µg/mL (≈ 11.2 µM)
- Wirkung (Candida-Zellen): + (Spur Wirkung = unter 40 % Überlebende am 6.Tag p.i.)
- Wirkung compared with known compounds (A), (B), (C) and (D) (Candida-Zellen): bessere Wirkung
